Laboratory results: US10598672B2, “Methods and compositions for diagnosing and treating loss and/or distortion of taste or smell” (Cyrano Therapeutics, Inc., priority 2014, dated 2020)

Test system: patients with taste dysfunction
Assay: Subjective taste acuity and flavor perception (0-100 scale)
Format: in vivo, human
Details: for FLAVOR PERCEPTION: DEGREE OF IMPROVEMENT / TASTE ACUITY: DEGREE OF IMPROVEMENT: Mean ± SEM
Protocol: Subjective statements of acuity loss were quantitated by use of a scale from 0-100 with 100 reflecting total loss of taste function, 0 reflecting no loss and a number between 0-100 reflecting appropriate degree of loss. Mean±SEM of loss degree was measured among all patients and each pathology initiating taste dysfunction.
Subjective statements of taste acuity loss and loss of flavor perception were quantitated by use of a scale from 0-100 with 100 reflecting total loss of taste acuity or flavor perception, 0 reflecting no loss and a number between 0-100 reflecting appropriate degree of loss. […] Mean±SEM of loss degree was measured among all patients and each pathology initiating taste dysfunction.
[…] Saliva Shh and measurements of taste function by use of subjective responses of acuity and flavor perception and in olfactometry was measured at intervals of 2-6 months in these patients.

[1] = MEN, patient number 38, after oral theophylline
[2] = WOMEN, patient number 41, after oral theophylline
[3] = all patients, patient number 79, after oral theophylline

## Cn1c(=O)c2[nH]cnc2n(C)c1=O [theophylline]
[1]
  FLAVOR PERCEPTION: I[…]: 22
  FLAVOR PERCEPTION: I[…], figure in parentheses: 58
  TASTE ACUITY: I[…]: 21
  TASTE ACUITY: I[…], figure in parentheses: 55
  FLAVOR PERCEPTION: DEGREE OF IMPROVEMENT: 18 ± 4%
  TASTE ACUITY: DEGREE OF IMPROVEMENT: 20 ± 5%
[2]
  FLAVOR PERCEPTION: I[…]: 23
  FLAVOR PERCEPTION: I[…], figure in parentheses: 54
  TASTE ACUITY: I[…]: 24
  TASTE ACUITY: I[…], figure in parentheses: 59
  FLAVOR PERCEPTION: DEGREE OF IMPROVEMENT: 36 ± 6%
  TASTE ACUITY: DEGREE OF IMPROVEMENT: 35 ± 6%
After oral treatment 200-1000 mg for 2-10 months
  patients with improvement in both subjective taste acuity and flavor perception: about 60%
[3]
  FLAVOR PERCEPTION: I[…]: 45
  FLAVOR PERCEPTION: I[…], figure in parentheses: 63
  TASTE ACUITY: I[…]: 45
  TASTE ACUITY: I[…], figure in parentheses: 63
  FLAVOR PERCEPTION: DEGREE OF IMPROVEMENT: 24 ± 4%
  TASTE ACUITY: DEGREE OF IMPROVEMENT: 28 ± 4^+ %
